Molecular target: human GLP-1 receptor (Homo sapiens (Human), UniProt P43220)
Conditions: read-out: Mean EC50; cAMP, HTRF detection, 30 min at 37° C., HEK-293 cells expressing cloned human GLP-1 receptor

human GLP-1 receptor, sequence (P43220 24-463): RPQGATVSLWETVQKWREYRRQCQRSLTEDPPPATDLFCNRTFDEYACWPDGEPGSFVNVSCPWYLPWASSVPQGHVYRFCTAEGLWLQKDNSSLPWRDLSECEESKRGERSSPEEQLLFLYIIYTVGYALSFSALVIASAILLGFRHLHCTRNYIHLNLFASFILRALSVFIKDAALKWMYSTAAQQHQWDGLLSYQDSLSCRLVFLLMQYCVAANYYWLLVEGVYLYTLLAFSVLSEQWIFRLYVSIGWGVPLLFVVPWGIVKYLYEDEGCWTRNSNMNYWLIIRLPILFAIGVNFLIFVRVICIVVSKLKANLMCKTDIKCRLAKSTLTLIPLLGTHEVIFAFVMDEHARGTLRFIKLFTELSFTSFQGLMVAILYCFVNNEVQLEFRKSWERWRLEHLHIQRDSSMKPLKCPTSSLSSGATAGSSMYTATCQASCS

| EC50 [µM] | Compound |
| --- | --- |
| 0.263 | CNc1nc(C)c(S(=O)(=O)N2Cc3cc4c(cc3C[C@H]2C(=O)N[C@@H](Cc2ccc(-c3ccc(C#N)cc3)cc2)C(=O)O)OC[C@H](c2ccc(OCc3ccc(Cl)c(Cl)c3)cc2)O4)s1 [Example 85, (S)-3-(4′-Cyano-biphenyl-4-yl)-2-{[(3S,8S)-3-[4-(3,4-dichloro-benzyloxy)-phenyl]-7-(4-methyl-2-methylamino-thiazole-5-sulfonyl)-2,3,6,7,8,9-hexahydro-[1,4]dioxino[2,3-g]isoquinoline-8-carbonyl]-amino}-propionic acid] |
| 0.249 | CCNc1nc(C)c(S(=O)(=O)N2Cc3cc4c(cc3C[C@H]2C(=O)N[C@@H](Cc2ccc(-c3ccc(C#N)cc3)cc2)C(=O)O)OC[C@H](c2ccc(OCc3ccc(Cl)c(Cl)c3)cc2)O4)s1 [Example 86, (S)-3-(4′-Cyano-biphenyl-4-yl)-2-{[(3S,8S)-3-[4-(3,4-dichloro-benzyloxy)-phenyl]-7-(2-ethylamino-4-methyl-thiazole-5-sulfonyl)-2,3,6,7,8,9-hexahydro-[1,4]dioxino[2,3-g]isoquinoline-8-carbonyl]-amino}-propionic acid] |
| 0.156 | COCCNc1nc(C)c(S(=O)(=O)N2Cc3cc4c(cc3C[C@H]2C(=O)N[C@@H](Cc2ccc(-c3ccc(C#N)cc3)cc2)C(=O)O)OC[C@H](c2ccc(OCc3ccc(Cl)c(Cl)c3)cc2)O4)s1 [Example 92, (S)-3-(4′-Cyano-biphenyl-4-yl)-2-({(3S,8S)-3-[4-(3,4-dichloro-benzyloxy)-phenyl]-7-[2-(2-methoxy-ethylamino)-4-methyl-thiazole-5-sulfonyl]-2,3,6,7,8,9-hexahydro-[1,4]dioxino[2,3-g]isoquinoline-8-carbonyl}-amino)-propionic acid] |
| 0.377 | COc1cc(C)ccc1S(=O)(=O)N1Cc2cc3c(cc2C[C@H]1C(=O)N[C@@H](Cc1ccc(-c2ccc(C#N)cc2)cc1)C(=O)O)OC[C@H](c1ccc(OCc2ccc(Cl)c(Cl)c2)cc1)O3 [Example 98, (S)-3-(4′-Cyano-biphenyl-4-yl)-2-{[(3S,8S)-3-[4-(3,4-dichloro-benzyloxy)-phenyl]-7-(2-methoxy-4-methyl-benzenesulfonyl)-2,3,6,7,8,9-hexahydro-[1,4]dioxino[2,3-g]isoquinoline-8-carbonyl]-amino}-propionic acid] |
| 0.214 | CCC(=O)Nc1nc(C)c(S(=O)(=O)N2Cc3cc4c(cc3C[C@H]2C(=O)N[C@@H](Cc2ccc(-c3ccc(C#N)cc3)cc2)C(=O)O)OCC(c2ccc(OCc3ccc(Cl)c(Cl)c3)cc2)O4)s1 (stereo partly drawn) [Example 132, (S)-3-(4′-Cyano-biphenyl-4-yl)-2-{[(S)-3-[4-(3,4-dichloro-benzyloxy)-phenyl]-7-(4-methyl-2-propionylamino-thiazole-5-sulfonyl)-2,3,6,7,8,9-hexahydro-[1,4]dioxino[2,3g]isoquinoline-8-carbonyl]-amino}-propionic acid] |
| 0.315 | Cc1nc(N)ccc1S(=O)(=O)N1Cc2cc3c(cc2C[C@H]1C(=O)N[C@@H](Cc1ccc(-c2ccc(C#N)cc2)cc1)C(=O)O)OC[C@H](c1ccc(OCc2ccc(Cl)c(Cl)c2)cc1)O3 [Example 141, (S)-2-({(3S,8S)-7-(6-Amino-2-methyl-pyridine-3-sulfonyl)-3-[4-(3,4-dichloro-benzyloxy)-phenyl]-2,3,6,7,8,9-hexahydro-[1,4]dioxino[2,3-g]isoquinoline-8-carbonyl}-amino)-3-(4′-cyano-biphenyl-4-yl)-propionic acid] |
| 0.263 | Cc1nc(NC(C)C)ccc1S(=O)(=O)N1Cc2cc3c(cc2C[C@H]1C(=O)N[C@@H](Cc1ccc(-c2ccc(C#N)cc2)cc1)C(=O)O)OC[C@H](c1ccc(OCc2ccc(Cl)c(Cl)c2)cc1)O3 [Example 142, (S)-3-(4′-Cyano-biphenyl-4-yl)-2-{[(3S,8S)-3-[4-(3,4-dichloro-benzyloxy)-phenyl]-7-(6-isopropylamino-2-methyl-pyridine-3-sulfonyl)-2,3,6,7,8,9-hexahydro-[1,4]dioxino[2,3-g]isoquinoline-8-carbonyl]-amino}-propionic acid] |
| 0.245 | Cc1nc(NCC2CC2)ccc1S(=O)(=O)N1Cc2cc3c(cc2C[C@H]1C(=O)N[C@@H](Cc1ccc(-c2ccc(C#N)cc2)cc1)C(=O)O)OC[C@H](c1ccc(OCc2ccc(Cl)c(Cl)c2)cc1)O3 [Example 144, (S)-3-(4′-Cyano-biphenyl-4-yl)-2-({(3S,8S)-7-[6-(cyclopropylmethyl-amino)-2-methyl-pyridine-3-sulfonyl]-3-[4-(3,4-dichloro-benzyloxy)-phenyl]-2,3,6,7,8,9-hexahydro-[1,4]dioxino[2,3-g]isoquinoline-8-carbonyl}-amino)-propionic acid] |
| 0.005 | CC[C@@H](c1ccccc1)N1Cc2cc3c(cc2C[C@H]1C(=O)N[C@@H](Cc1ccc(-c2ccnc(C)c2C)cc1)C(=O)O)OC[C@H](c1ccc(OCc2cccc(Cl)c2)cc1)O3 [Example 147, (S)-2-{[(3S,8S)-3-[4-(3-Chloro-benzyloxy)-phenyl]-7-((S)-1-phenyl-propyl)-2,3,6,7,8,9-hexahydro-[1,4]dioxino[2,3-g]isoquinoline-8-carbonyl]-amino}-3-[4-(2,3-dimethyl-pyridin-4-yl)-phenyl]-propionic acid] |
| 0.026 | CC[C@@H](c1ccccc1)N1Cc2cc3c(cc2C[C@H]1C(=O)N[C@@H](Cc1ccc(-c2ccnc(C)c2C)cc1)C(=O)O)OC[C@H](c1ccc(OCc2ccccc2)cc1)O3 [Example 149, (S)-2-{[(3S,8S)-3-(4-Benzyloxy-phenyl)-7-((S)-1-phenyl-propyl)-2,3,6,7,8,9-hexahydro-[1,4]dioxino[2,3-g]isoquinoline-8-carbonyl]-amino}-3-[4-(2,3-dimethyl-pyridin-4-yl)-phenyl]-propionic acid] |
| 0.372 | CC(=O)N1Cc2cc3c(cc2C[C@H]1C(=O)N[C@@H](Cc1ccc(-c2ccnc(C)c2C)cc1)C(=O)O)OC[C@H](c1ccc(OCc2ccc(Cl)c(Cl)c2)cc1)O3 [Example 150, (S)-2-({(3S,8S)-7-Acetyl-3-[4-(3,4-dichloro-benzyloxy)-phenyl]-2,3,6,7,8,9-hexahydro-[1,4]dioxino[2,3-g]isoquinoline-8-carbonyl}-amino)-3-[4-(2,3-dimethyl-pyridin-4-yl)-phenyl]-propionic acid] |
| 0.018 | Cc1ccccc1C(=O)N1Cc2cc3c(cc2C[C@H]1C(=O)N[C@@H](Cc1ccc(-c2ccnc(C)c2C)cc1)C(=O)O)OC[C@H](c1ccc(OCc2ccc(Cl)c(Cl)c2)cc1)O3 [Example 151, (S)-2-{[(3S,8S)-3-[4-(3,4-Dichloro-benzyloxy)-phenyl]-7-(2-methyl-benzoyl)-2,3,6,7,8,9-hexahydro-[1,4]dioxino[2,3-g]isoquinoline-8-carbonyl]-amino}-3-[4-(2,3-dimethyl-pyridin-4-yl)-phenyl]-propionic acid] |
| 0.08 | Cc1nccc(-c2ccc(C[C@H](NC(=O)[C@@H]3Cc4cc5c(cc4CN3C(=O)C(C)(C)C)O[C@@H](c3ccc(OCc4ccc(Cl)c(Cl)c4)cc3)CO5)C(=O)O)cc2)c1C [Example 152, (S)-2-{[(3S,8S)-3-[4-(3,4-Dichloro-benzyloxy)-phenyl]-7-(2,2-dimethyl-propionyl)-2,3,6,7,8,9-hexahydro-[1,4]dioxino[2,3-g]isoquinoline-8-carbonyl]-amino}-3-[4-(2,3-dimethyl-pyridin-4-yl)-phenyl]-propionic acid] |
| 0.327 | Cc1nccc(-c2ccc(C[C@H](NC(=O)[C@@H]3Cc4cc5c(cc4CN3C(=O)C(C)C)O[C@@H](c3ccc(OCc4ccc(Cl)c(Cl)c4)cc3)CO5)C(=O)O)cc2)c1C [Example 153, (S)-2-({(3S,8S)-3-[4-(3,4-Dichloro-benzyloxy)-phenyl]-7-isobutyryl-2,3,6,7,8,9-hexahydro-[1,4]dioxino[2,3-g]isoquinoline-8-carbonyl}-amino)-3-[4-(2,3-dimethyl-pyridin-4-yl)-phenyl]-propionic acid] |
| 0.108 | Cc1nccc(-c2ccc(C[C@H](NC(=O)[C@@H]3Cc4cc5c(cc4CN3C(=O)C3CCCC3)O[C@@H](c3ccc(OCc4ccc(Cl)c(Cl)c4)cc3)CO5)C(=O)O)cc2)c1C [Example 154, (S)-2-({(3S,8S)-7-Cyclopentanecarbonyl-3-[4-(3,4-dichloro-benzyloxy)-phenyl]-2,3,6,7,8,9-hexahydro-[1,4]dioxino[2,3-g]isoquinoline-8-carbonyl}-amino)-3-[4-(2,3-dimethyl-pyridin-4-yl)-phenyl]-propionic acid] |
| 0.525 | Cc1nccc(-c2ccc(C[C@H](NC(=O)[C@@H]3Cc4cc5c(cc4CN3C(=O)Cc3ccccc3)O[C@@H](c3ccc(OCc4ccc(Cl)c(Cl)c4)cc3)CO5)C(=O)O)cc2)c1C [Example 155, (S)-2-({(3S,8S)-3-[4-(3,4-Dichloro-benzyloxy)-phenyl]-7-phenylacetyl-2,3,6,7,8,9-hexahydro-[1,4]dioxino[2,3-g]isoquinoline-8-carbonyl}-amino)-3-[4-(2,3-dimethyl-pyridin-4-yl)-phenyl]-propionic acid] |
| 0.034 | Cc1cccc(C(=O)N2Cc3cc4c(cc3C[C@H]2C(=O)N[C@@H](Cc2ccc(-c3ccnc(C)c3C)cc2)C(=O)O)OC[C@H](c2ccc(OCc3ccc(Cl)c(Cl)c3)cc2)O4)c1 [Example 157, (S)-2-{[(3S,8S)-3-[4-(3,4-Dichloro-benzyloxy)-phenyl]-7-(3-methyl-benzoyl)-2,3,6,7,8,9-hexahydro-[1,4]dioxino[2,3-g]isoquinoline-8-carbonyl]-amino}-3-[4-(2,3-dimethyl-pyridin-4-yl)-phenyl]-propionic acid] |

| Compound | EC50 [µM] |
| --- | --- |
| CC[C@@H](c1ccccc1)N1Cc2cc3c(cc2C[C@H]1C(=O)N[C@@H](Cc1ccc(-c2ccnc(C)c2C)cc1)C(=O)O)OC[C@H](c1ccc(OCc2ccc(Cl)cc2)cc1)O3 [Example 148, (S)-2-{[(3S,8S)-3-[4-(4-Chloro-benzyloxy)-phenyl]-7-((S)-1-phenyl-propyl)-2,3,6,7,8,9-hexahydro-[1,4]dioxino[2,3-g]isoquinoline-8-carbonyl]-amino}-3-[4-(2,3-dimethyl-pyridin-4-yl)-phenyl]-propionic acid] | 0.013 |
